Measured values as given in US20050227220A1, “Compositions and Methods for Evaluating and Designing Nuclear Receptor Ligands that Modulate Co-Regulator Affinity” (priority 2002, published 2005).

Experiments:
[1] = biological target: T1, PPARδ LBD / RXRα LBD (Homo sapiens, UniProt Q03181); assay: FRET assay: ligand effect on RXRα LBD binding to PPAR LBD; details: 10 nM PPAR LBD, 4 concentrations of RXR
T1 sequence (Q03181 139-441): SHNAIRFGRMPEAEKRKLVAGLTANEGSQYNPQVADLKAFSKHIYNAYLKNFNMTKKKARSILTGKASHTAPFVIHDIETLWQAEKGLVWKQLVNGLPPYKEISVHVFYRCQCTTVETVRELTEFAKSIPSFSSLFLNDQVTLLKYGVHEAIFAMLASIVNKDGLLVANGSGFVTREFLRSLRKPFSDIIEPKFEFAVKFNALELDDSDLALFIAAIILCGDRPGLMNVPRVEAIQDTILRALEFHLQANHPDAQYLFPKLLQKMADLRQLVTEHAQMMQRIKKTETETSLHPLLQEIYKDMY
T1 sequence (P19793 225-462 partner limits assumed): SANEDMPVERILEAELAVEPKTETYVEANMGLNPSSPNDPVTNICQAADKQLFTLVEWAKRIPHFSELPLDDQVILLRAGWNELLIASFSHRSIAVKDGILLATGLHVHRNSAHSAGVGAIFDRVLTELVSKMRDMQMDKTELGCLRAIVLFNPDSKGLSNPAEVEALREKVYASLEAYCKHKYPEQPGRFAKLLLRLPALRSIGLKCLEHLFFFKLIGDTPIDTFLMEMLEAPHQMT

[2] = biological target: T2, PPARα LBD (Homo sapiens, UniProt Q07869); assay: FRET assay: ligand effect on CBP fragment / NCoR ID-C binding to PPAR LBD; format: biochemical; details: 10 nM PPAR LBD; for effect on apparent affinity of PPARα for the co-activator fragment from CBP: CBP (57-454)
T2 construct: made in house; host or cells: bacterial BL21-DE3, vector pRSETA
T2 sequence (Q07869 192-468): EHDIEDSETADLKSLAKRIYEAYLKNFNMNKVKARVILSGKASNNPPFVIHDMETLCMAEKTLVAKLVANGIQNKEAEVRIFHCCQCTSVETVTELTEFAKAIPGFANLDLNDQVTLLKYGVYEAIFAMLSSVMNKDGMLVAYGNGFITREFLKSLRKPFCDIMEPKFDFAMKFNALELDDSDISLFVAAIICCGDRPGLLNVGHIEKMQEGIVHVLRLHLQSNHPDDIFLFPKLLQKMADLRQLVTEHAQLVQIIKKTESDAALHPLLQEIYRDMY
Excerpt: (§1) The experimentally determined α value is the ratio of cofactor affinities in the presence and absence of a saturating concentration of ligand. This analysis permits a direct comparison of the effects of compounds, independent of cofactor concentration and differences in coregulator affinity for the individual receptors. […] 98(9): p.
(§2) The effects of the coregulator environment on the apparent affinities and selectivities of various ligands were than examined. Experimentally determined pKs and the α values derived from the FRET assay were used to calculate the apparent affinity of the ligand for the receptor/cofactor complex (i.e. K/α).
(§3) FIG. 5 illustrates the effect of ligands on coactivator and corepressor binding to PPAR subtypes determined by FRET.

[3] = biological target: T3, PPARδ LBD (Homo sapiens, UniProt Q03181); assay: as above; format: biochemical; details: 10 nM PPAR LBD, CBP (57-454)
T3 construct: made in house; host or cells: bacterial BL21-DE3, vector pRSETA
T3 sequence (Q03181 139-441): T1 sequence (Q03181 139-441)
Excerpt: as §1, §2, §3

[4] = biological target: T4, full length human PPARα (Homo sapiens, UniProt Q07869); assay: Mammalian two-hybrid assay (CV-1 cells); format: cell-based; details: VP16-PPARα, GAL4-NCoR (2239-2300), result in words
T4 construct: expressed in transfected cells; host or cells: CV-1 cells, vector pVP16 (Clonetech)
T4 sequence (Q07869 1-468): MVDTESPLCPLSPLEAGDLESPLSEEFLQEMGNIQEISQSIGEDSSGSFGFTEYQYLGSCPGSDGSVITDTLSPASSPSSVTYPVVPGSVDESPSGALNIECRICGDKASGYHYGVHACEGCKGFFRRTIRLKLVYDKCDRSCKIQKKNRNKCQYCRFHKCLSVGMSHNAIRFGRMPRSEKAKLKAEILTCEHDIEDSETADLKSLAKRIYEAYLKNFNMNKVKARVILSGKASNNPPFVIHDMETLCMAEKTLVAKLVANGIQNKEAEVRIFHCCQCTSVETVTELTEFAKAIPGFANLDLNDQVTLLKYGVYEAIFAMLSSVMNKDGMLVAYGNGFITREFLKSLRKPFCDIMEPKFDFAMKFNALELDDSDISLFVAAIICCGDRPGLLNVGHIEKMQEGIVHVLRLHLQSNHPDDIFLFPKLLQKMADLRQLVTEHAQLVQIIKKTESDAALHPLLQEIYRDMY
Excerpt: Mammalian two-hybrid assays were used to examine the ability of the tyrosine-based class of PPAR ligands to promote association or dissociation of the co-activator CBP and the corepressor NCoR in the context of a cellular environment. The assays for the three PPAR subtypes used full length human PPARα, PPARγ2 or PPARδ fused to the activation domain of VP16 and previously identified interaction domains of CBP and NCoR fused to the DNA binding domain of GAL4.
Expression plasmids for the VP16-human PPAR constructs were prepared by inserting amplified cDNAs encoding full length PPARα, PPARγ2 and PPARδ fused to amino acids 410-490 of the VP16 viral activation domain, into the expression vector pVP16 (Clonetech). […] The reporter plasmid was (UAS)5-tk-SPAP, and the internal control plasmid for all transfections was β-galactosidase expression vector (pCH110, Amersham).
CV-1 cells were maintained in culture in DME high glucose medium supplemented with 10% FBS and 2 mM glutamine in a humidified incubator (5% CO2 in air) at 37° C. Cells were harvested 72 hours prior to experimental use and placed in phenol red free D-MEM/F-12 medium with 15 mM HEPES supplemented with 10% charcoal/dextran-treated FBS (HyClone, Logan, Utah). The cells were harvested and seeded at 2.0×10^4 cell per well in a 96-well plate the day prior to transfection. Cells were transfected for 16 hr using Lipofectamine (Life Technologies, Inc., Rockville, Md.) essentially according to the manufacturer's instructions. The total amount of DNA transfected into each well was 80 ng. Transfection mixtures contained 8 ng VP16-PPAR plasmid, 8 ng SPAP reporter, 25 ng of pCH110(β-galactosidase) control plasmid, 35 ng of pBluescript II KS+ (Clonetech) and 4 ng of either coactivator or corepressor plasmid. Transfection quantities for full length PPAR and cofactor plasmids were optimized to generate a signal that was half of the maximal activation. These conditions would allow for dissociation or association to be experimentally determined for each ligand evaluated. Stock solutions of drugs were prepated in DMSO and dilutions were made in phenol red-free D-MEM/F-12 with 15 mM HEPES supplemented with 10% charcoal stripped, delipidated, heat inactivated (62° C. for 35 min) bovine calf serum (Sigma, St. Louis, Mo.) such that the final concentration of DMSO was 0.1%. Transfection mixtures were aspirated and 100 μl, of medium containing drug was added to each well.

[5] = biological target: GAL4-CBP (1-115) (UniProt P04386 1-147; P45481 1-115); assay: cell-based or functional assay

Molecule: Cc1oc(-c2ccccc2)nc1CCOc1ccc(C[C@H](Nc2ccccc2C(=O)c2ccccc2)C(=O)O)cc1 [GW2570, farglitazar]
- promotion of association of PPARδ with RXR [1]: most effective
- effect on apparent affinity of PPARα for the co-activator fragment from CBP [2]: increased the apparent affinity
- effect on apparent affinity of PPARδ for the co-activator fragment from CBP [3]: increased the apparent affinity

Molecule: CCC(=O)NC[C@H](Cc1ccc(OCCc2nc(-c3ccccc3)oc2C)cc1)N/C(C)=C\C(=O)c1ccc(C(F)(F)F)cc1 [GW6471]
- effect on PPARα interaction with NCoR [4]: modulation of co-repressor interaction was seen

Molecule: C/C(=C/C(=O)c1ccccc1)N[C@@H](Cc1ccc(OCCc2nc(-c3ccccc3)oc2C)cc1)C(=O)O [GW9544]
- effect on apparent affinity of PPARα for the co-activator fragment from CBP [2]: increased the apparent affinity

Molecule: Cc1cc(SCc2sc(-c3ccc(C(F)(F)F)cc3)nc2C)ccc1OCC(=O)O [GW1516]
- effect on apparent affinity of PPARα for the co-activator fragment from CBP [2]: increased the apparent affinity
- effect on affinity of PPARα for the co-repressor peptide ([2]; NCoR ID-C): decreased the affinity

B1: VP16-human PPARδ (full length) (other)
chain: LSTAPPTDVSLGDELHLDGEDVAMAHADALDDFDLDMLGDGDSPGPGFTPHDSAPYGALDMADFEFEQMFTDALGIDEYGGMEQPQEEAPEVREEEEKEEVAEAEGAPELNGGPQHALPSSSYTDLSRSSSPPSLLDQLQMGCDGASCGSLNMECRVCGDKASGFHYGVHACEGCKGFFRRTIRMKLEYEKCERSCKIQKKNRNKCQYCRFQKCLALGMSHNAIRFGRMPEAEKRKLVAGLTANEGSQYNPQVADLKAFSKHIYNAYLKNFNMTKKKARSILTGKASHTAPFVIHDIETLWQAEKGLVWKQLVNGLPPYKEISVHVFYRCQCTTVETVRELTEFAKSIPSFSSLFLNDQVTLLKYGVHEAIFAMLASIVNKDGLLVANGSGFVTREFLRSLRKPFSDIIEPKFEFAVKFNALELDDSDLALFIAAIILCGDRPGLMNVPRVEAIQDTILRALEFHLQANHPDAQYLFPKLLQKMADLRQLVTEHAQMMQRIKKTETETSLHPLLQEIYKDMY
- mammalian two-hybrid reporter, fold association with GW1929 and GW7845 [5]: ~2 fold
